Test results published in US20240254118A1, “PRMT5 INHIBITORS AND USES THEREOF” (Gilead Sciences, Inc., priority 2022, published 2024).

Key:
[1] = tested on: SDMA signal (PRMT5 inhibition) in HCT116 MTAP-deleted cells; experiment: Symmetric di-methyl arginine image-based high content screen assay (SDMA assay), HCT116 MTAP-deleted; type: cell-based; conditions: SDMA assay; for EC50: Homo sapiens, HCT-116, 72 h, 3 days of treatment, cell line not given, taken as HCT116 MTAP-deleted, read-out: EC50 (SDMA assay)
Procedure, shortened: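 Read-out: per-cell mean SDMA immunofluorescence (Alexa Fluor 488 secondary), cells segmented by DAPI on a high-content imager. Compound exposure in HCT116 MTAP-deleted cells lasted until fixation on Day 3; overnight 4° C primary anti-SDMA antibody staining.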

[2] = tested on: HCT116 MTAP-deleted cells; experiment: Cell viability assay (CellTiter-Glo, 7 days), HCT116 MTAP-deleted; conditions: Homo sapiens, HCT-116, 168 h
Experimental: Control compounds were analyzed in parallel each time for quality control.
In Brief, on Day −1, a serial dilution of stock compounds in DMSO was performed using BioMek liquid handlers and dispensed using Echo acoustic dispenser into 384 well plates. Both tool compounds and sample compounds were spotted in the same plate for a dose response of PRMT5 inhibitors. Compound plates were stored as frozen until the cells were ready for seeding.
On Day 0, 100 HCT WT or HCT116 MTAP-deleted cells were seeded in compound-containing 384 well plates (50 μl per well) in RPMI 1640 media supplemented with 10% heat inactivated fetal bovine serum, Glutamax and penicillin streptomycin using EL460 liquid dispenser 5 μl cassette (BioTek, part no. 7170011). After equilibrating the plate in room temperature, the cells were incubated for 7 days inside the sealed incubator set at 37 °C with 90% humidity and 5% CO2.
On Day 7, the viability of cells was measured using a CTG assay kit (CellTitre-Glo; Promega cat no. G7573). Shortly, 40 μl per well of luminescent cell viability assay reagent were dispensed using EL460 liquid dispenser 5 μl cassette. CTG luminescence signal was measured using an EnVision plate reader (PerkinElmer) in accordance with manufacturer's instruction. The CC50 values for each compound after 7 days of treatment were calculated using 4 parameter non-linear logistical curve fit.

[3] = taken as HCT116 WT versus MTAP-deleted
[4] = taken as HCT116 WT vs MTAP-deleted

| SMILES | EC50 [1] [nM] | EC50 selectivity (SDMA assay) [1, 3] | CC50 [2] [nM] | EC50 selectivity (SDMA assay) [1, 4] |
| --- | --- | --- | --- | --- |
| Cn1ncc2c(N)nc3ccc(C(=O)N(Cc4ccccn4)N4CCCC4=O)cc3c21 [Example 54, 4-amino-1-methyl-N-(2-oxopyrrolidin-1-yl)-N-(pyridin-2-ylmethyl)-1H-pyrazolo[4,3-c]quinoline-8-carboxamide] | > 5 | 339 | 100 to 1000 |  |
| CC(=O)N(C)N(Cc1ccc(C#CC2(C(F)F)CC2)cc1F)C(=O)c1ccc2nc(N)c3cnn(C)c3c2c1 [Example 177, N′-acetyl-4-amino-N-(4-((1-(difluoromethyl)cyclopropyl)ethynyl)-2-fluorobenzyl)-N′,1-dimethyl-1H-pyrazolo[4,3-c]quinoline-8-carbohydrazide] | 1 to 5 | 36 | < 100 |  |
| CN1CCN(N(Cc2ccc(C(F)(F)F)cc2F)C(=O)c2ccc3nc(N)c4cnn(C)c4c3c2)C1=O [Example 7, 4-amino-N-(2-fluoro-4-(trifluoromethyl)benzyl)-1-methyl-N-(3-methyl-2-oxoimidazolidin-1-yl)-1H-pyrazolo[4,3-c]quinoline-8-carboxamide] | < 1 | 62 | < 100 |  |
| Cc1cc(CN(C(=O)c2ccc3nc(N)c4cnn(C)c4c3c2)N(C)C(=O)C2CC2)c(F)cc1-c1cnn(C(F)(F)F)c1 [Example 315, 4-amino-N′-(cyclopropanecarbonyl)-N-(2-fluoro-5-methyl-4-(1-(trifluoromethyl)-1H-pyrazol-4-yl)benzyl)-N′,1-dimethyl-1H-pyrazolo[4,3-c]quinoline-8-carbohydrazide] | < 1 | 160 | < 100 |  |
| Cn1ncc2c(N)nc3ccc(C(=O)N(Cc4ccc(C(F)(F)F)cn4)N4C(=O)O[C@@H]5CC[C@@H]54)cc3c21 [Example 260, 4-amino-1-methyl-N-((1R,5S)-3-oxo-2-oxa-4-azabicyclo[3.2.0]heptan-4-yl)-N-((5-(trifluoromethyl)pyridin-2-yl)methyl)-1H-pyrazolo[4,3-c]quinoline-8-carboxamide] | 1 to 5 | 211 | < 100 |  |
| CC(=O)N(c1ncccn1)N(Cc1ccc(C(F)(F)F)cn1)C(=O)c1ccc2nc(N)c3cnn(C)c3c2c1 [Example 114, N′-acetyl-4-amino-1-methyl-N′-pyrimidin-2-yl-N-[[5-(trifluoromethyl)-2-pyridyl]methyl]pyrazolo[4,3-c]quinoline-8-carbohydrazide] | < 1 | 32 | < 100 |  |
| Cn1c(CN(C(=O)c2ccc3nc(N)c4c(c3c2)COC4)N2CCCC2=O)nc2ccccc21 [Example 81, 4-Amino-N-[(1-methylbenzimidazol-2-yl)methyl]-N-(2-oxopyrrolidin-1-yl)-1,3-dihydrofuro[3,4-c]quinoline-8-carboxamide] | 1 to 5 | 101 | < 100 |  |
| CN(C(=O)C1CC1)N(Cc1ccc2c(c1)OC(F)(F)O2)C(=O)c1ccc2nc(N)c3cnn(C)c3c2c1 [Example 283, 4-amino-N′-(cyclopropanecarbonyl)-N-((2,2-difluorobenzo[d][1,3]dioxol-5-yl)methyl)-N′,1-dimethyl-1H-pyrazolo[4,3-c]quinoline-8-carbohydrazide] | < 1 | 80 | < 100 |  |
| CN(C(=O)C1CC1)N(Cc1nc2cc(Cl)ccc2o1)C(=O)c1ccc2nc(N)c3cnn(C)c3c2c1 [Example 259, 4-amino-N-((5-chlorobenzo[d]oxazol-2-yl)methyl)-N′-(cyclopropanecarbonyl)-N′,1-dimethyl-1H-pyrazolo[4,3-c]quinoline-8-carbohydrazide] | 1 to 5 | 182 | < 100 |  |
| CC(=O)N([C@@H]1CCOC1)N(Cc1ccc(C(F)(F)F)cn1)C(=O)c1ccc2nc(N)c3cnn(C)c3c2c1 [Example 206, N′-acetyl-4-amino-1-methyl-N′-[(3R)-tetrahydrofuran-3-yl]-N-[[5-(trifluoromethyl)-2-pyridyl]methyl]pyrazolo[4,3-c]quinoline-8-carbohydrazide] | > 5 | 220 | 100 to 1000 |  |
| CC(=O)N(C)N(Cc1nc2cc(Cl)ccc2n1C)C(=O)c1ccc2nc(N)c3cnn(C)c3c2c1 [Example 209, N′-Acetyl-4-amino-N-[(5-chloro-1-methyl-benzimidazol-2-yl)methyl]-N′,1-dimethyl-pyrazolo[4,3-c]quinoline-8-carbohydrazide] | < 1 | 228 | < 100 |  |
| Cn1ncc2c(N)nc3ccc(C(=O)N(Cc4ccc(C(F)(F)F)cn4)NC(=O)C4CC4)cc3c21 [Example 443, 4-amino-N′-(cyclopropanecarbonyl)-1-methyl-N-((5-(trifluoromethyl)pyridin-2-yl)methyl)-1H-pyrazolo[4,3-c]quinoline-8-carbohydrazide] | < 1 |  | < 100 | 400 |
| CN(C(=O)N1CC2CC1C2)N(Cc1ccc(C(F)(F)F)cn1)C(=O)c1ccc2nc(N)c3cnn(C)c3c2c1 [Example 128, 4-amino-N′-(2-azabicyclo[2.1.1]hexane-2-carbonyl)-N′,1-dimethyl-N-((5-(trifluoromethyl)pyridin-2-yl)methyl)-1H-pyrazolo[4,3-c]quinoline-8-carbohydrazide] | < 1 | 131 | < 100 |  |
| CC(=O)N(C)N(Cc1nc2cccc(Cl)c2n1C)C(=O)c1ccc2nc(N)c3cnn(C)c3c2c1 [Example 438, N′-acetyl-4-amino-N-((7-chloro-1-methyl-1H-benzo[d]imidazol-2-yl)methyl)-N′,1-dimethyl-1H-pyrazolo[4,3-c]quinoline-8-carbohydrazide] | < 1 |  | < 100 | 141 |
| Cn1ncc2c(N)nc3ccc(C(=O)N(Cc4cc5ccccn5n4)N4CCCCC4=O)cc3c21 [Example 94, 4-amino-1-methyl-N-(2-oxo-1-piperidyl)-N-(pyrazolo[1,5-a]pyridin-2-ylmethyl)pyrazolo[4,3-c]quinoline-8-carboxamide] | < 1 | 133 | < 100 |  |
| Cn1ncc2c(N)nc3ccc(C(=O)N(Cc4ccc(Cl)cc4F)NC(=O)C4CC4)cc3c21 [Example 439, 4-amino-N-(4-chloro-2-fluorobenzyl)-N′-(cyclopropanecarbonyl)-1-methyl-1H-pyrazolo[4,3-c]quinoline-8-carbohydrazide] | < 1 |  | < 100 | 51 |
| Cn1ncc2c(N)nc3ccc(C(=O)N(Cc4ccccc4F)N4CCCC4=O)cc3c21 [Example 56, 4-amino-N-(2-fluorobenzyl)-1-methyl-N-(2-oxopyrrolidin-1-yl)-1H-pyrazolo[4,3-c]quinoline-8-carboxamide] | < 1 | 195 | < 100 |  |
| CC(=O)N(C)N(Cc1ccc2nc(C(F)(F)F)sc2c1)C(=O)c1ccc2nc(N)c3cnn(C)c3c2c1 [Example 337, N′-acetyl-4-amino-N′,1-dimethyl-N-((2-(trifluoromethyl)benzo[d]thiazol-6-yl)methyl)-1H-pyrazolo[4,3-c]quinoline-8-carbohydrazide] | 1 to 5 | 67 | < 100 |  |
| COCCN(C)N(Cc1ccc(C(F)(F)F)cn1)C(=O)c1ccc2nc(N)c3cnn(C)c3c2c1 [Example 179, 4-amino-N′-(2-methoxyethyl)-N′,1-dimethyl-N-((5-(trifluoromethyl)pyridin-2-yl)methyl)-1H-pyrazolo[4,3-c]quinoline-8-carbohydrazide] | < 1 | 318 | < 100 |  |
| CC(=O)N(C)N(Cc1ccc(C#CC(C)(C)O)cc1F)C(=O)c1ccc2nc(N)c3cnn(C)c3c2c1 [Example 389, N′-acetyl-4-amino-N-[[2-fluoro-4-(3-hydroxy-3-methyl-but-1-ynyl)phenyl]methyl]-N′,1-dimethyl-pyrazolo[4,3-c]quinoline-8-carbohydrazide] | 1 to 5 | 31 | < 100 |  |
| CN(CC1CCC1)N(Cc1ccc(C(F)(F)F)cn1)C(=O)c1ccc2nc(N)c3cnn(C)c3c2c1 [Example 172, 4-amino-N′-(cyclobutylmethyl)-N′,1-dimethyl-N-[[5-(trifluoromethyl)-2-pyridyl]methyl]pyrazolo[4,3-c]quinoline-8-carbohydrazide] | 1 to 5 | 153 | < 100 |  |
| Cn1ncc2c(N)nc3ccc(C(=O)N(Cc4ccc(C(F)(F)F)cn4)N4CCC(F)(F)C4=O)cc3c21 [Example 171, 4-amino-N-(3,3-difluoro-2-oxo-pyrrolidin-1-yl)-1-methyl-N-[[5-(trifluoromethyl)-2-pyridyl]methyl]pyrazolo[4,3-c]quinoline-8-carboxamide] | < 1 | 571 | < 100 |  |
| CC(=O)N(C)N(Cc1ccc(Cl)cc1Cl)C(=O)c1ccc2nc(N)c3cnn(C)c3c2c1 [Example 329, N′-acetyl-4-amino-N-(2,4-dichlorobenzyl)-N′,1-dimethyl-1H-pyrazolo[4,3-c]quinoline-8-carbohydrazide] | < 1 | 134 | < 100 |  |
| COC(=O)N(C)N(Cc1ccc(C(F)(F)F)cn1)C(=O)c1ccc2nc(N)c3cnn(C)c3c2c1 [Example 253, methyl 2-(4-amino-1-methyl-1H-pyrazolo[4,3-c]quinoline-8-carbonyl)-1-methyl-2-((5-(trifluoromethyl)pyridin-2-yl)methyl)hydrazine-1-carboxylate] | < 1 | 28 | < 100 |  |
